Source: US12268674B2, “Mi-2β inhibitor as an immunotherapy agent” (BioVentures, LLC, priority 2021, dated 2025)

Assays:
[1] = test system: Mi-2β function (CXCL9, CXCL10, IRF1 expression) in A375 cells; assay: Cell-based assay of inhibitory activity on Mi-2β function, A375; conditions: summary of Table 3 (A375 and B16)
Description: The total RNA was extracted with QIAGEN RNeasy kit […] for cDNA synthesis with SuperScript II Reverse Transcriptase (Invitrogen). In total, 40 ng cDNA was used for quantitative real-time PCR amplification by TaqMan Gene Expression Master Mix (Thermo Fisher Scientific). The relative transcript levels were normalized with GAPDH expression. The data were calculated with the comparative CT method.

[2] = target: T1, recombinant purified human Mi-2β protein (Homo sapiens, UniProt Q14839); assay: FRET-based nucleosome repositioning assay (EpiDyne-FRET); type: biochemical; conditions: FRET-based nucleosome repositioning assay; read-out: IC50 against Mi-2β
T1 construct: made in house
T1 sequence (Q14839 whole entry): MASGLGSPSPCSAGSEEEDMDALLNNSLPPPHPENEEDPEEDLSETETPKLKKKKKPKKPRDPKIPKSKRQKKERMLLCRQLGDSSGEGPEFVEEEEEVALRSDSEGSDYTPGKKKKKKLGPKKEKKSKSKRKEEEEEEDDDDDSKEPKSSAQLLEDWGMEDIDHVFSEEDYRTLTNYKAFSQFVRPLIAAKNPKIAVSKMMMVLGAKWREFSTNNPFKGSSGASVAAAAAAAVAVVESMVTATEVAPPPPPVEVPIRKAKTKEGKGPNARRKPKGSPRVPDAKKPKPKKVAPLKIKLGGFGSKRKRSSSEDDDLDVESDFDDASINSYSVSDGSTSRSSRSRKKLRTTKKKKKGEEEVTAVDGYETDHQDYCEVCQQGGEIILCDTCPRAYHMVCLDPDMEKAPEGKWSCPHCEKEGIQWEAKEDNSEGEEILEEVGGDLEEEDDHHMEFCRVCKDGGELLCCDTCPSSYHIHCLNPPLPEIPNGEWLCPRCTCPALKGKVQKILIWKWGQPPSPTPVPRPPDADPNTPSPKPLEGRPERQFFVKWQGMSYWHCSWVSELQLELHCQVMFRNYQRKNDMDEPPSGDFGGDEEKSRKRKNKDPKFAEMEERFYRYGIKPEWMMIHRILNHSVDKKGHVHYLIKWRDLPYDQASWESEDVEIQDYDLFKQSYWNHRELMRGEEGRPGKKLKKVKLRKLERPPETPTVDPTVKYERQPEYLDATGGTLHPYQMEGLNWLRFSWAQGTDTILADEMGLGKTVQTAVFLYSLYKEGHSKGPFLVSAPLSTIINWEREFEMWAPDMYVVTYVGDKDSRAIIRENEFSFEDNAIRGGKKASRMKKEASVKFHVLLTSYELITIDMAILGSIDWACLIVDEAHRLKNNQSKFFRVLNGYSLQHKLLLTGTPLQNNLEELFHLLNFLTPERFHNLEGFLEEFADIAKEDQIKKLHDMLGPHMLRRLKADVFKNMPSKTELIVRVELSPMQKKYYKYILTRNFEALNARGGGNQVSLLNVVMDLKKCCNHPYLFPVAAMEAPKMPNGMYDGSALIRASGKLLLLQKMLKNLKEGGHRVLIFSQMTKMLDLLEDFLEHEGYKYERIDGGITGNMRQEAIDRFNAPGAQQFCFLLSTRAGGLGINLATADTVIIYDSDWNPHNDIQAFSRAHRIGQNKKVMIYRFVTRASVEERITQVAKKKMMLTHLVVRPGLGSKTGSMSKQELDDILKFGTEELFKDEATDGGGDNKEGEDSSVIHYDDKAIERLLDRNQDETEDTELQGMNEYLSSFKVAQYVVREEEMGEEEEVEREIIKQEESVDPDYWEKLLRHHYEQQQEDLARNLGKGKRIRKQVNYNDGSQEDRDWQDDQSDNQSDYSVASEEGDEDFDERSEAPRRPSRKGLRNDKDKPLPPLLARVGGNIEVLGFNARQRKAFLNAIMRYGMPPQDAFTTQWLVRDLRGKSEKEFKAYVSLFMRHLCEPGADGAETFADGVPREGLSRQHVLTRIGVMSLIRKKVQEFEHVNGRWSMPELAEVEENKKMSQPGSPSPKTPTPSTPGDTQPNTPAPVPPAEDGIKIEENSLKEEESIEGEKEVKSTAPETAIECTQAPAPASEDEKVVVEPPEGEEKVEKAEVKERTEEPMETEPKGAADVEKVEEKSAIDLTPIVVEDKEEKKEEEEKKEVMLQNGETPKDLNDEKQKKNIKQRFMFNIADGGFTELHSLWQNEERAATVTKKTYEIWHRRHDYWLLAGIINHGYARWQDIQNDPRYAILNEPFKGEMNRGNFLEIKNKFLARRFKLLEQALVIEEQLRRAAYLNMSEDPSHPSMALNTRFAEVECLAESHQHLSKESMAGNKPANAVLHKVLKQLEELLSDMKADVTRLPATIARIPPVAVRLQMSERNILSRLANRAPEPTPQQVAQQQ
Description: To screen small molecules that inhibit Mi-2β activity, Homology Modeling was carried out using Structure Prediction Wizard in Prime (49, 50). Mi-2β belongs to the CHD family of chromatin remodelers, which share highly conserved ATPase/helicase domains (51, 52). The Homology Model of Mi-2β was generated using the yeast CHD1 structure (PDB code: 3MWY) as template and the sequence was obtained from Uniprot (53), which clearly depicted the interaction of Mi-2β binding pocket and ATP (FIG. 10a). Virtual screening was done with the enzyme hinge region ligands database and nucleoside mimetic database from Enamine. All ligands of ˜23,010 compounds were docked to the ATP binding site using SP docking and post-processed with Prime MM-GBSA. Ligands with a methyldihydroimidazopyridinone structure were predicted to bind best to the ATP binding region of Mi-2β. To analyze biochemically the inhibitory activity of those inhibitors, a Fluorescence Resonance Energy Transfer (FRET)-based nucleosome repositioning assay (54, 55) was designed and modified using recombinant purified human Mi-2β protein to screen an in-house library of small molecular compounds with a methyldihydroimidazopyridinone structure (FIG. 10b). Briefly, the recombinant nucleosome substrates consist of a Cy5-labeled human histone octamer (H2A T120C-Cy5) wrapped with 5′ Cy3-labeled DNA, which contains a terminal nucleosome 601 positioning sequence. The 601 sequence provides the most thermodynamically preferred locations on DNA for histone octamer (56). FRET signaling was monitored by exciting the nucleosomes at the Cy3 absorption maximum and measuring Cy5 emissions and consequently the FRET signal is at a maximum at the assembled starting point. In the presence of ATP, Mi-2β induces the histone octamer to translocate along the DNA such that the Cy3-labeled DNA 5′ end is moved away from the Cy5-labeled octamer and consequently the FRET signal is decreased (FIG. 10b). The reaction conditions for nucleosome repositioning were modified through multiple rounds of optimization and validation (FIG. 10c-d). […]

melanoma = conditions: clinical data; cited from earlier work

Compound | inhibitory activity on Mi-2β function (enhanced expression of IFN-γ-responsive genes) [1] | IC50 [2] | melanoma patients that respond (melanoma)
Cc1c(C(=O)NC2CCn3ccnc3C2)cccc1-c1cnc2[nH]c(=O)n(C)c2c1 (stereo not shown) [SJW-6-004] | high inhibitory activity |  | 
Cn1c(=O)[nH]c2ncc(-c3cccc(C(=O)NC4CCn5ccnc5C4)c3)cc21 (stereo not shown) [Z36] | high inhibitory activity | 6.97 ± 2.07 µM | 
Cn1c(=O)n(C)c2ncc(-c3cccc(C(=O)NC4CCn5ccnc5C4)c3)cc21 (stereo not shown) [ZW-7-023] | high inhibitory activity |  | 
O=C(NC1CCn2ccnc2C1)c1cccc(-c2cnc3[nH]c(=O)n(Cc4cccc(C(F)(F)F)c4)c3c2)c1 (stereo not shown) [ZW-7-059] | high inhibitory activity |  | 
ipilimumab: anti-CTLA-4 antibody |  |  | 20%
pembrolizumab: anti-PD-1 antibody |  |  | 33%
